Experimental data: the NIST ThermoML archive (doi:10.1021/je800664z)

How the values were obtained:
[1] = for surface tension liquid-gas: Capillary rise; for mass density / viscosity: 101 kPa, Liquid
[2] = refractive index (Na D-line) (dimensionless); conditions: 101.33 kPa, Liquid, Standard Abbe refractometry
[3] = xn = mol fraction of the nth substance listed; conditions: x2 = 0; for surface tension liquid-gas: Capillary rise; for mass density / viscosity: 101 kPa, Liquid
[4] = refractive index (Na D-line) (dimensionless); xn = mol fraction of the nth substance listed; conditions: 101 kPa, Liquid, Standard Abbe refractometry, x2 = 0

C1COCO1 [1,3-dioxolane]
Conditions | mass density, [1] [kg/m3] | refractive index, [2] | surface tension liquid-gas, [1] [mN/m] | viscosity, [1] [mPa·s]
288.15 K | 1071.24 | 1.40252 | 34.37 | 0.667
298.15 K | 1059.29 | 1.39795 | 32.55 | 0.596
308.15 K | 1046.85 | 1.39322 | 30.67 | 0.535

CC(C)CC(C)(C)C [2,2,4-trimethylpentane]
Conditions | mass density, [1] [kg/m3] | refractive index, [2] | surface tension liquid-gas, [1] [mN/m] | viscosity, [1] [mPa·s]
288.15 K | 696.1 | 1.39408 | 19.18 | 0.537
298.15 K | 687.95 | 1.38916 | 18.33 | 0.481
308.15 K | 679.62 | 1.38497 | 17.35 | 0.434

CC(C)CC(C)(C)C [2,2,4-trimethylpentane] + C1COCO1
Conditions | mass density, [3] [kg/m3] | refractive index, [4] | surface tension liquid-gas, [3] [mN/m] | viscosity, [3] [mPa·s]
288.15 K | 696.1 | 1.39408 | 19.18 | 0.537
298.15 K | 687.95 | 1.38916 | 18.33 | 0.481
308.15 K | 679.62 | 1.38497 | 17.35 | 0.434

CC(C)O [propan-2-ol]
Conditions | mass density, [1] [kg/m3] | refractive index, [2] | surface tension liquid-gas, [1] [mN/m] | viscosity, [1] [mPa·s]
288.15 K | 789.53 | 1.37933 | 21.75 | 2.849
298.15 K | 781.16 | 1.37515 | 20.9 | 2.043
308.15 K | 772.52 | 1.37061 | 20.17 | 1.541

CC(C)O [propan-2-ol] + C1COCO1
Conditions | mass density, [3] [kg/m3] | refractive index, [4] | surface tension liquid-gas, [3] [mN/m] | viscosity, [3] [mPa·s]
288.15 K | 789.53 | 1.37933 | 21.75 | 2.849
298.15 K | 781.16 | 1.37515 | 20.9 | 2.043
308.15 K | 772.52 | 1.37061 | 20.17 | 1.541
